Source: publication PMC8404199, “Structure–Activity Relationships of Triple-Action Platinum(IV) Prodrugs with Albumin-Binding Properties and Immunomodulating Ligands” (Journal of Medicinal Chemistry, 2021)
Read-outs that look alike come from different tables or passages of the source.

Key:
[1] = tested on: human hepatic cell line (WRL68); test: MTT cytotoxicity assay in non-malignant WRL68 cells; assay type: cell-based; conditions: 72 h
Description: (§1) The cells were seeded at 3500–6000 cells/well in 96-well plates depending on the proliferation rate of the respective cell line and allowed to recover for 24 h. Subsequently, the cells were treated at indicated concentrations for 48 or 72 h. Cells were additionally incubated with 5-fold equimolar concentrations of ascorbic acid to increase the reduction rate of the compounds. Cell viability was measured by the MTT-based vitality assay (EZ4U; Biomedica, Vienna, Austria), following the manufacturer’s recommendations.

human SKOV3 cancer cells = test: MTT cytotoxicity assay in SKOV3 cells; assay type: cell-based; conditions: 72 h incubation
Description: as §1

[2] = tested on: human embryonic kidney cells (HEK293); test: MTT cytotoxicity assay in non-malignant HEK293 cells; assay type: cell-based; conditions: 72 h
Description: as §1

[3] = tested on: VM7 melanoma cancer cells; test: MTT cytotoxicity assay in VM7 cells; assay type: cell-based, human; conditions: 72 h
Description: as §1

[4] = tested on: human HCT116 colon cancer cells; test: MTT cytotoxicity assay in HCT116 cells; assay type: cell-based
Description: (§2) Cells were additionally incubated with 5-fold equimolar concentrations of ascorbic acid to increase the reduction rate of the compounds. Cell viability was measured by the MTT-based vitality assay (EZ4U; Biomedica, Vienna, Austria), following the manufacturer’s recommendations.

albumin = biological target: T1, albumin (Bos taurus, UniProt P02769); test: SEC-ICP-MS albumin binding and serum stability in fetal calf serum; assay type: in vitro ADME; conditions: FCS + 150 mM phosphate buffer pH 7.4, 37 °C
T1 construct: FCS was purchased from Sigma-Aldrich and buffered with 150 mM phosphate buffer (pH 7.4); tissue Sigma-Aldrich; host or cells: fetal calf serum
T1 sequence (P02769 25-607): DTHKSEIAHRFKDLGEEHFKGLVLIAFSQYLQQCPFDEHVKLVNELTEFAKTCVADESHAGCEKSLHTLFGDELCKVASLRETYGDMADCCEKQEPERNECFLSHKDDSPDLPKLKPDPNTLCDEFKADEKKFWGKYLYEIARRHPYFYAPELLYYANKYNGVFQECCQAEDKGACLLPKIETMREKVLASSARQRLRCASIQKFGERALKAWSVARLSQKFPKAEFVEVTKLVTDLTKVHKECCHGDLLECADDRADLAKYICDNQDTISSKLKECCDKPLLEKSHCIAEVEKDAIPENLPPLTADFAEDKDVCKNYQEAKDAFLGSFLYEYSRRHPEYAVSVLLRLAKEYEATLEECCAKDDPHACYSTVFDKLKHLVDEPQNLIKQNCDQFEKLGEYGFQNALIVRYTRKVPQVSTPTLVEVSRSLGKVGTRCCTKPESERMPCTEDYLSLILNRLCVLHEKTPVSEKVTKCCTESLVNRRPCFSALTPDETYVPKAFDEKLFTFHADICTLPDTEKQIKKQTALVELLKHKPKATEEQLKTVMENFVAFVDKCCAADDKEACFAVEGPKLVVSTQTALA
Description: FCS was purchased from Sigma-Aldrich and buffered with 150 mM phosphate buffer (pH 7.4) to guarantee a stable pH. The maleimide-bearing platinum(IV) complexes were dissolved in 10% DMF in 150 mM phosphate buffer (pH 7.4) to 1 mM and diluted 1:10 in serum to obtain a final concentration of 100 μM. The samples were then incubated in the autosampler at 37 °C for 24 h and analyzed every 1 h. Between each sample, a pure water blank was measured. For SEC–ICP–MS measurements, an Agilent 1260 Infinity system coupled to an Agilent 7800 ICP–MS equipped with a dynamic reaction cell was used. Oxygen (purity 5.5, Messer Austria GmbH, Gumpoldskirchen, Austria) was used as reaction gas.

[5] = log D7.4 determination by shake flask method and ICP-MS; assay type: physicochemical; conditions: n-octanol/phosphate buffer pH 7.4, Pt by ICP-MS
Description: 50 mM stock solutions of the succinimide complexes in DMF were diluted in phosphate buffer (20 mM, pH 7.4, pre-saturated with n-octanol) to a final concentration of 50 μM drug and 0.1% DMF. The platinum content of these aqueous solutions was measured by ICP–MS (see above). The solutions were mixed 1:1 with n-octanol and shaken on a 360° rotatable rack for 3 h. The solutions were centrifuged for 5 min (860g, RT), the aqueous layers were carefully removed, and their Pt content was measured by ICP–MS. Experiments were performed and measured in duplicates, and averages were used for further calculations. log D7.4 values were calculated by the following equation [drawing 1]

SKOV3 cancer cells = test: Long-term cytotoxicity assay (crystal violet) in SKOV3 cells; assay type: cell-based, human; conditions: 168 h, crystal violet stain, mean ± SD
Description: SKOV3 cells were seeded in duplicates at 5000 cells/well in 24-well plates and allowed to recover for 24 h. Subsequently, the cells were treated at the indicated concentrations for 168 h. Cells were fixed with ice-cold methanol (20 min at 4 °C), washed with PBS, and stained with crystal violet. Subsequently, colony formation was inspected, and the fluorescence signal was detected using Typhoon Trio imager (GE Healthcare, Little Chalfont, UK) at 610/30 nm BP and analyzed by ImageJ software.

[6] = tested on: murine CT26 colon cancer cells; test: MTT cytotoxicity assay in CT26 cells; assay type: cell-based
Description: as §2

[7] = UHPLC reduction experiments with L-ascorbic acid; assay type: physicochemical; conditions: 1 mM complex, 10-fold excess AA, phosphate buffer pH 7.4, 1% DMF, 20 °C
Description: The platinum(IV)–succinimide complexes were dissolved in 2% DMF in phosphate buffer (500 mM, pH 7.4) to a final concentration of 2 mM. The solutions were then mixed 1:1 with a 20 mM stock of L-ascorbic acid in phosphate buffer (500 mM, pH 7.4) to obtain final concentrations of 1 mM complex, 10 mM L-ascorbic acid, and 1% DMF. The samples were incubated at 20 °C and measured on a Dionex UltiMate 3000 RS UPLC system with a Waters Acquity UPLC BEH C18 column (3 × 50 mm, pore size 1.7 μm) and absorption detection at 220 nm. Data points were taken at t = 0 and every 30 min for 6 h.

SKOV3 cell lysates = test: Reduction and 1-MDT release in SKOV3 lysates; assay type: in vitro ADME, human; conditions: 100 μM, 37 °C
Description: SKOV3 cells were grown in four T225 […] cell culture flasks to reach a high cell number. On the day of cell lysate isolation, cells were washed with PBS, scraped from the surface, and centrifuged. Each cell pellet was lysed in ∼160 μL lysis buffer (15 mM NaCl 0.5% Triton X, ultrapure) and incubated on ice for 1 h. The samples were then centrifuged for 15 min at 14,000 rpm (4 °C), and the cleared lysate was pooled and kept at −80 °C until analysis. Cell lysates were treated with 2 mM stock solutions of respective complexes in 4% DMF and phosphate buffer (100 mM, pH 7.4) to obtain a final compound concentration of 100 μM and incubated at 37 °C. After 0, 4, 24, and 72 h, three volume equivalents of cold MeOH were added to sample aliquots. Samples were stored at 4 °C for 10 min and centrifuged (15,080g, 4 °C, 10 min). LC–MS analysis of the supernatant was performed on an Agilent 1260 Infinity system using a Waters Atlantis T3 column (150 mm × 4.6 mm) and absorption detection at 230 nm, coupled to a Bruker amaZon SL ESI-IT mass spectrometer. Milli-Q water, containing 0.1% formic acid, and acetonitrile, containing 0.1% formic acid, were used as eluents. A gradient of 1–99% acetonitrile in 20 min was used.

[8] = with 5 eq. AA, read-out: SKOV3 IC50 values + 5 eq. AA, mean
[9] = without AA, read-out: SKOV3 IC50 values, mean
[10] = 48 h incubation, with 5 equiv AA, read-out: HCT116 IC50 values +AA, mean ± SD
[11] = 48 h incubation, without AA, read-out: HCT116 IC50 values, mean ± SD
[12] = 72 h incubation, with 5 eq. AA, read-out: HCT116 IC50 values + 5 eq. AA, mean
[13] = 72 h incubation, without AA, read-out: HCT116 IC50 values, mean
[14] = 48 h incubation, with 5 equiv AA, read-out: CT26 IC50 values +AA, mean ± SD
[15] = 48 h incubation, without AA, read-out: CT26 IC50 values, mean ± SD
[16] = 72 h incubation, with 5 eq. AA, read-out: CT26 IC50 values + 5 eq. AA, mean
[17] = 72 h incubation, without AA, read-out: CT26 IC50 values, mean

Row | Structure (SMILES) | IC50 [1] | IC50 (human SKOV3 cancer cells; [8]) | IC50 (human SKOV3 cancer cells; [9]) | IC50 [2] | IC50 [3] | IC50 [4, 10] | IC50 [4, 11] | IC50 [4, 12] | IC50 [4, 13] | albumin binding in serum (in words) (albumin) | log D7.4 [5] | IC50 (SKOV3 cancer cells) | IC50 [6, 14] | IC50 [6, 15] | IC50 [6, 16] | IC50 [6, 17] | time until complex completely reduced [7] | 1-MDT release after 72 h (SKOV3 cell lysates) | also measured
1 | Cn1cc(CC([NH3+])C(=O)[O][Pt]23([O]C(=O)NCCCCCN4C(=O)CCC4=O)([NH]C4CCCCC4[NH]2)[O]C(=O)C(=O)[O]3)c2ccccc21.O=C([O-])C(F)(F)F [SucCa/IdoEs, (OC-6-34)-[(R)-2-Ammonio-3-(1-methyl-1H-indol-3-yl)propanoato][(1R,2R)-1,2-cyclohexanediamino][5-(2,5-dioxo-2,5-dihydro-1H-pyrrolidin-1-yl)pentylcarbamato]oxalatoplatinum(IV) Trifluoroacetate] | 76.4 µM | > 100 µM | > 100 µM | 33.2 µM | > 100 µM | 7.36 ± 1.14 µM | 26 ± 3.21 µM | 5.35 µM | 7.23 µM | significant binding to albumin (tR ~4 min) could be observed for any of the compounds | –0.16 | 18.4 ± 3 µM | 10.8 ± 1.04 µM | 60.1 ± 6.49 µM | 16.9 µM | 31.9 µM | ≤ 2 h | ~100% | –
2 | Cn1cc(C[C@@H](NC(=O)[O][Pt]2([O]C(=O)CCCCCN3C(=O)CCC3=O)[O]C(=O)C(=O)[O]2)C(=O)O)c2ccccc21.N[C@@H]1CCCC[C@H]1N [SucEs/IdoCa] | > 100 µM | > 100 µM | > 100 µM | 77.5 µM | > 100 µM | 35.4 ± 6.54 µM | > 100 µM | 20.8 µM | 82.1 µM | significant binding to albumin (tR ~4 min) could be observed for any of the compounds | –2.02 | 53.1 ± 4.5 µM | 26.7 ± 0.75 µM | > 100 µM | 46 µM | 90.5 µM | – | – | ratio (IC50 without AA / with AA), HCT116 ([4]; 48 h): ≥2.8; ratio (IC50 without AA / with AA), HCT116 ([4]; 72 h): 3.94; ratio (IC50 without AA / with AA), CT26 ([6]; 48 h): ≥3; ratio (IC50 without AA / with AA), CT26 ([6]; 72 h): 1.97; complex intact after 6 h [7]: 90%; still present as platinum(IV) species after 72 h (SKOV3 cell lysates): ~50%
3 | Cn1cc(C[C@@H]([NH3+])C(=O)[O][Pt]2([O]C(=O)CCCCCN3C(=O)CCC3=O)[O]C(=O)C(=O)[O]2)c2ccccc21.N[C@@H]1CCCC[C@H]1N.O=C([O-])C(F)(F)F [SucEs/IdoEs, (OC-6-44)-[(R)-2-Ammonio-3-(1-methyl-1H-indol-3-yl)propanoato][(1R,2R)-1,2-cyclohexanediamino][6-(2,5-dioxopyrrolidin-1-yl)hexanoato]oxalatoplatinum(IV) Trifluoroacetate] | 81.7 µM | > 100 µM | > 100 µM | 44.2 µM | > 100 µM | 6.94 ± 0.33 µM | 22.8 ± 1.15 µM | 4.89 µM | 5.45 µM | significant binding to albumin (tR ~4 min) could be observed for any of the compounds | –0.30 | 19.4 ± 1.2 µM | – | 91.5 ± 3.84 µM | 18.1 µM | 44.9 µM | ≤ 2 h | ~100% | –
